In US12399167B2 (priority 2019, dated 2025):
≈ marks a conversion by molar mass, not a printed value. Where “and” joins values, the source holds several entries; their conditions need not be identical. Equal values may be shown once. Read-outs that look alike come from different tables or passages of the source.

Legend:
[1] = system: zebrafish embryos and larvae (AB strain); settings: for NH: Number of health fish: of 60 embryos
Protocol: Toxicant exposure of the embryos: transferring healthy zebrafish embryos laid within 4 hours with droppers into 24 well plates which serve as embryo incubation containers, adding one embryo and 2 mL of the test drug liquid into each well, setting four replicates at a time for each concentration, using a total of 4×15 embryos per concentration; then, placing the 24 well plates into an incubator at a temperature of 26±1° C., allowing incubation under a condition of 14 h light: 10 h dark, recording the death number and the incubation time of the embryos every day, and replacing the test drug liquids once every two days during this test stage. Each concentration consumes a total of 60 embryos, and thus multiple 24 well plates are used during the test.
Selection of a test organism: zebrafish is selected as the test organism, the zebrafish is AB strain and embryos used in the test are propagated and obtained by the following methods: before the test, zebrafish broodstock is reared in water at a temperature of 26±1° C., the ratio of light time to dark time is 14 h:10 h, and when it is lighted, it should be naturally illuminated in a 4.8 m×3.0 m room, plus four 40 W fluorescent lamps, and the feeding lasts at least 2 weeks in an environment which is oxygenated by aeration, the zebrafish broodstock is fed once a day during pre-cultivation, and feces and food residues are removed in time. The zebrafish is purchased from the Institute of Hydrobiology of Chinese Academy of Science. The zebrafish has the advantages of short growth cycle, strong reproductive ability, transparent fertilized eggs, and easy observation of embryonic development, making it an important model organism in aquatic ecological toxicology research.
Toxicant exposure of larvae: recording the number of the larvae at the end of the embryo hatching, transferring the larvae into glass beakers containing 200 mL of the test drug liquid with the corresponding test concentration, replacing the test drug liquids once every two days during this test stage that lasts 30 days after hatching, and feeding the zebrafish larvae with yolk in the first three days and then with fairy shrimp twice a day, wherein the larvae are firstly fed on the fourth or fifth day after spawning. The feed amount is adjusted according to the actual situation so as to be able to freely ingest and avoid excess.
During the test, if relevant test data are found to be not in the preceding scopes, then the current test is invalid, and a new test is required to be carried out again.
Observation in the test: observing the hatching rate and survival rate and recording the quantity of the larvae once a day; checking the larvae's malformation, the number of malformed larvae and abnormal behaviors once a week; removing impurities and dead larvae in beakers in a timely manner; all live larvae of the control groups and the concentration test groups are anesthetized with MS-222 for measurement of the body lengths and wet weights one by one at the end of the test, wherein the body length of each adolescent fish is measured with a vernier caliper, and the wet weight of each adolescent fish is weighed with an electronic balance. The reciprocal sensibility of the electronic balance is 0.00001 g, and the moisture on the body surface of each fish needs to be removed when the wet weight is weighed.
DPS statistical analysis software is the existing software and therefore is not described in detail here. Any other software that can implement the statistical analysis function is also available.

[2] = 20° C.; cited from earlier work

CN/C(=N/CC1CCOC1)N[N+](=O)[O-] (centres unmarked) [dinotefuran]
weights of the larvae versus control groups ([1]; 9.375 mg a.i./L): obviously different
AL: Average length of live fish ([1]; 9.375 mg a.i./L, end of test): 15.86 ± 0.95 a mm
AM: Accumulative mortality ([1]; 9.375 mg a.i./L, end of test): 26.67 a %
NH: Number of health fish ([1]; 9.375 mg a.i./L, end of test): 44 Piece
Average weight of Live fish ([1]; 9.375 mg/L, end of test): 16.53 ± 2.18 b mg
weights of the larvae versus control groups ([1]; 18.75 mg a.i./L): obviously different
AL: Average length of live fish ([1]; 18.75 mg a.i./L, end of test): 15.83 ± 0.88 a mm
AM: Accumulative mortality (death rate of the larvae) ([1]; 18.75 mg a.i./L, end of test): 41.67% and 41.67 b %
NH: Number of health fish ([1]; 18.75 mg a.i./L, end of test): 35 Piece
Average weight of Live fish ([1]; 18.75 mg/L, end of test): 14.21 ± 1.68 c mg
body lengths of the larvae versus control groups ([1]; 37.5 mg a.i./L): obviously different
weights of the larvae versus control groups ([1]; 37.5 mg a.i./L): obviously different
AL: Average length of live fish ([1]; 37.5 mg a.i./L, end of test): 13.52 ± 1.61 b mm
AM: Accumulative mortality (death rate of the larvae) ([1]; 37.5 mg a.i./L, end of test): 46.67% and 46.67 b %
NH: Number of health fish ([1]; 37.5 mg a.i./L, end of test): 32 Piece
Average weight of Live fish ([1]; 37.5 mg/L, end of test): 13.89 ± 1.96 c mg
body lengths of the larvae versus control groups ([1]; 75.0 mg a.i./L): obviously different
weights of the larvae versus control groups ([1]; 75.0 mg a.i./L): obviously different
AL: Average length of live fish ([1]; 75.0 mg a.i./L, end of test): 12.83 ± 1.53 b mm
AM: Accumulative mortality (death rate of the larvae) ([1]; 75.0 mg a.i./L, end of test): 55.0% and 55.0 b %
NH: Number of health fish ([1]; 75.0 mg a.i./L, end of test): 27 Piece
Average weight of Live fish ([1]; 75.0 mg/L, end of test): 13.29 ± 2.96 c mg
fate of all larvae at the end of the test ([1]; 150 mg a.i./L): died
fate of all larvae at the end of the test ([1]; 300 mg a.i./L): died
minimum observable effect concentration on the body lengths of the larvae ([1]; end of test): 37.5 mg a.i./L
minimum observable effect concentration on the weights of the larvae ([1]; end of test): 9.375 mg a.i./L
unobservable effect concentration on the body lengths of the larvae ([1]; end of test): 18.75 mg a.i./L
toxic symptoms during the exposure stage ([1]; test groups): no obvious toxic symptoms were observed except malformation of several fishes before death
solubility in methanol [2]: 57 mg/mL (≈ 282 mM)
